# According to ChEMBL document CHEMBL3864157, “The synthesis and antistaphylococcal activity of dehydroabietic acid derivatives: Modifications at C-12” (2016):
# Columns and labels:
# Assay type in all cases: functional
# Staphylococcus aureus [1] = test: Antibacterial activity against Staphylococcus aureus Newman
# Staphylococcus aureus [2] = test: Antibacterial activity against erythromycin-resistant Staphylococcus aureus NRS-70
# Staphylococcus aureus [3] = test: Antibacterial activity against aminoglycosides/tetracycline-resistant Staphylococcus aureus NRS-1
# Staphylococcus aureus [4] = test: Antibacterial activity against gentamicin-resistant Staphylococcus aureus NRS-108
# Staphylococcus aureus [5] = test: Antibacterial activity against linezolid-resistant Staphylococcus aureus NRS-271
# Staphylococcus aureus [6] = test: Antibacterial activity against oxacillin/tetracycline-resistant Staphylococcus aureus NRS-100
SMILES,MIC (Staphylococcus aureus [1]) [µg/mL],MIC (Staphylococcus aureus [2]) [µg/mL],MIC (Staphylococcus aureus [3]) [µg/mL],MIC (Staphylococcus aureus [4]) [µg/mL],MIC (Staphylococcus aureus [5]) [µg/mL],MIC (Staphylococcus aureus [6]) [µg/mL]
CC(C)c1cc2c(cc1C(=NOCc1ccccc1)c1ccccc1)[C@@]1(C)CCC[C@@](C)(C(=O)O)[C@@H]1CC2,> 50,–,–,–,–,–
C#CCON=C(c1ccc(Cl)cc1Cl)c1cc2c(cc1C(C)C)CC[C@H]1[C@](C)(C(=O)O)CCC[C@]21C,1.56 to 3.13,1.56 to 3.13,> 25,12.5,12.5 to 25,12.5 to 25
C#CCON=C(c1cc2c(cc1C(C)C)CC[C@H]1[C@](C)(C(=O)O)CCC[C@]21C)c1ccccc1C(F)(F)F,1.56 to 3.13,> 25,> 25,> 25,> 25,> 25
CC(C)c1cc2c(cc1C(=NO)c1ccc(Cl)cc1Cl)[C@@]1(C)CCC[C@@](C)(C(=O)O)[C@@H]1CC2,1.56 to 3.13,1.56 to 3.13,3.13,1.56 to 3.13,1.56 to 3.13,3.13
CON=C(c1cc2c(cc1C(C)C)CC[C@H]1[C@](C)(C(=O)O)CCC[C@]21C)c1ccccc1C(F)(F)F,0.39 to 0.78,1.56 to 3.13,3.13 to 6.25,6.25 to 12.5,1.56 to 3.13,3.13 to 6.25
C=CCON=C(c1ccc(C(F)(F)F)cc1)c1cc2c(cc1C(C)C)CC[C@H]1[C@](C)(C(=O)O)CCC[C@]21C,> 50,–,–,–,–,–
CC(C)c1cc2c(cc1C(=NO)c1ccccc1)[C@@]1(C)CCC[C@@](C)(C(=O)O)[C@@H]1CC2,10 to 12.5,–,–,–,–,–
CC(C)c1cc2c(cc1C(=NO)c1cccc(C(F)(F)F)c1)[C@@]1(C)CCC[C@@](C)(C(=O)O)[C@@H]1CC2,1.56 to 3.13,1.56 to 3.13,3.13 to 6.25,3.13 to 6.25,3.13 to 6.25,3.13 to 6.25
C=CCON=C(c1ccc(Cl)cc1Cl)c1cc2c(cc1C(C)C)CC[C@H]1[C@](C)(C(=O)O)CCC[C@]21C,1.56 to 3.13,1.56 to 3.13,> 25,12.5,> 25,12.5 to 25
C#CCON=C(c1ccccc1)c1cc2c(cc1C(C)C)CC[C@H]1[C@](C)(C(=O)O)CCC[C@]21C,2.5,1.56 to 2.5,6.25 to 12.5,3.13 to 6.25,3.13 to 6.25,3.13
CON=C(c1ccc(C(F)(F)F)cc1)c1cc2c(cc1C(C)C)CC[C@H]1[C@](C)(C(=O)O)CCC[C@]21C,> 50,–,–,–,–,–
CON=C(c1cccc(C(F)(F)F)c1)c1cc2c(cc1C(C)C)CC[C@H]1[C@](C)(C(=O)O)CCC[C@]21C,1.56 to 3.13,> 25,> 25,> 25,> 25,> 25

# Continued, in another order:
MIC (Staphylococcus aureus [1]) [µg/mL],SMILES,MIC (Staphylococcus aureus [2]) [µg/mL],MIC (Staphylococcus aureus [3]) [µg/mL],MIC (Staphylococcus aureus [4]) [µg/mL],MIC (Staphylococcus aureus [5]) [µg/mL],MIC (Staphylococcus aureus [6]) [µg/mL]
> 50,C#CCON=C(c1ccc(C(F)(F)F)cc1)c1cc2c(cc1C(C)C)CC[C@H]1[C@](C)(C(=O)O)CCC[C@]21C,–,–,–,–,–
12.5 to 25,C=CCON=C(c1cc2c(cc1C(C)C)CC[C@H]1[C@](C)(C(=O)O)CCC[C@]21C)C1CCCCC1,–,–,–,–,–
> 50,C#CCO/N=C(\C)c1cc2c(cc1C(C)C)CC[C@H]1[C@](C)(C(=O)O)CCC[C@]21C,–,–,–,–,–
> 50,C/C(=N\O)c1cc2c(cc1C(C)C)CC[C@H]1[C@](C)(C(=O)O)CCC[C@]21C,–,–,–,–,–
15 to 20,C#CCON=C(CCC)c1cc2c(cc1C(C)C)CC[C@H]1[C@](C)(C(=O)O)CCC[C@]21C,–,–,–,–,–
> 50,C#CCON=C(c1cc2c(cc1C(C)C)CC[C@H]1[C@](C)(C(=O)O)CCC[C@]21C)C1CCCCC1,–,–,–,–,–
10 to 12.5,C=CCON=C(CCC)c1cc2c(cc1C(C)C)CC[C@H]1[C@](C)(C(=O)O)CCC[C@]21C,–,–,–,–,–
30 to 40,CO/N=C(/c1cc2c(cc1C(C)C)CC[C@H]1[C@](C)(C(=O)O)CCC[C@]21C)C(C)C,–,–,–,–,–
30 to 40,C=CCO/N=C(\C)c1cc2c(cc1C(C)C)CC[C@H]1[C@](C)(C(=O)O)CCC[C@]21C,–,–,–,–,–
40 to 50,CCCC(=NO)c1cc2c(cc1C(C)C)CC[C@H]1[C@](C)(C(=O)O)CCC[C@]21C,–,–,–,–,–
10 to 12.5,C#CCON=C(c1cc2c(cc1C(C)C)CC[C@H]1[C@](C)(C(=O)O)CCC[C@]21C)C(C)C,–,–,–,–,–
6.25 to 12.5,CC(C)c1cc2c(cc1C(=NO)c1cccs1)[C@@]1(C)CCC[C@@](C)(C(=O)O)[C@@H]1CC2,–,–,–,–,–
20 to 25,C#CCON=C(CC)c1cc2c(cc1C(C)C)CC[C@H]1[C@](C)(C(=O)O)CCC[C@]21C,–,–,–,–,–
